Laboratory results published in patent US12049450B2, “Pyridyloxy-carboxylate derivative and preparation method therefor, herbicidal composition, and use” (Qingdao Kingagroot Chemical Compound Co., Ltd., priority 2018, dated 2024).

How the values were obtained:
Test in all cases: Post-emergence test experiment (greenhouse pot, spray at 2-3 leaf stage)
Assay type in all cases: in vivo
Details in all cases: 1000 g/ha; post-emergence spray at 2-3 leaf stage; assessed after 3 weeks; fresh weight inhibition rate
[1] = system: Monochoria vaginalis
How it was run: (§1)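 Activity graded levels 0-5 by fresh-weight inhibition (level 5 above 85%, level 0 below 5%), assessed 3 weeks after treatment. Plants grown in greenhouse pots were sprayed post-emergence at 2-3 leaves using acetone/tween-80 solutions with methyl oleate synergist (1.5 L/ha).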

[2] = system: Abutilon theophrasti
How it was run: as §1

[3] = system: Galium spurium
How it was run: as §1

[4] = system: Digitaria sanguinalis
How it was run: as §1

[5] = system: Echinochloa crusgalli
How it was run: as §1

Structure (SMILES) | Activity level (growth inhibition rate) Monochoria Vaginalis [1] | Activity level (growth inhibition rate) Abutilon theophrasti [2] | Activity level (growth inhibition rate) Galium spurium [3] | Activity level (growth inhibition rate) Digitaria sanguinalis [4] | Activity level (growth inhibition rate) Echinochloa crusgalli [5]
CC(Oc1nc(F)c(Cl)c(N)c1Cl)C(=O)SCCc1ccc2ccsc2c1 (centres unmarked) [Compound 179] | 5 (Level 5: the growth inhibition rate is greater than 85%) | 5 (Level 5: the growth inhibition rate is greater than 85%) | 5 (Level 5: the growth inhibition rate is greater than 85%) | 5 (Level 5: the growth inhibition rate is greater than 85%) | 5 (Level 5: the growth inhibition rate is greater than 85%)
CC(Oc1nc(F)c(Cl)c(N)c1Cl)C(=O)OCc1cccc(N)c1 (centres unmarked) [Compound 90] | 5 (Level 5: the growth inhibition rate is greater than 85%) | 5 (Level 5: the growth inhibition rate is greater than 85%) | 5 (Level 5: the growth inhibition rate is greater than 85%) | 5 (Level 5: the growth inhibition rate is greater than 85%) | 5 (Level 5: the growth inhibition rate is greater than 85%)
CC(Oc1nc(F)c(Cl)c(N)c1Cl)C(=O)OC(C)c1ccc(Br)cc1 (centres unmarked) [Compound 77] | 5 (Level 5: the growth inhibition rate is greater than 85%) | 5 (Level 5: the growth inhibition rate is greater than 85%) | 5 (Level 5: the growth inhibition rate is greater than 85%) | 5 (Level 5: the growth inhibition rate is greater than 85%) | 5 (Level 5: the growth inhibition rate is greater than 85%)
CC(Oc1nc(F)c(Cl)c(N)c1C1CC1)C(=O)OCc1ccccc1 (centres unmarked) [Compound 22] | 5 (Level 5: the growth inhibition rate is greater than 85%) | 5 (Level 5: the growth inhibition rate is greater than 85%) | 5 (Level 5: the growth inhibition rate is greater than 85%) | 5 (Level 5: the growth inhibition rate is greater than 85%) | 5 (Level 5: the growth inhibition rate is greater than 85%)
Cc1cccc(CSC(=O)C(C)Oc2nc(F)c(Cl)c(N)c2Cl)c1 (centres unmarked) [Compound 219] | 5 (Level 5: the growth inhibition rate is greater than 85%) | 5 (Level 5: the growth inhibition rate is greater than 85%) | 5 (Level 5: the growth inhibition rate is greater than 85%) | 5 (Level 5: the growth inhibition rate is greater than 85%) | 5 (Level 5: the growth inhibition rate is greater than 85%)
CC(Oc1nc(F)c(Cl)c(N)c1Cl)C(=O)OCc1ccnn1C (centres unmarked) [Compound 216] | 5 (Level 5: the growth inhibition rate is greater than 85%) | 5 (Level 5: the growth inhibition rate is greater than 85%) | 5 (Level 5: the growth inhibition rate is greater than 85%) | 5 (Level 5: the growth inhibition rate is greater than 85%) | 5 (Level 5: the growth inhibition rate is greater than 85%)
CC(Oc1nc(F)c(Cl)c(N)c1Cl)C(=O)OCc1cnco1 (centres unmarked) [Compound 141] | 5 (Level 5: the growth inhibition rate is greater than 85%) | 5 (Level 5: the growth inhibition rate is greater than 85%) | 5 (Level 5: the growth inhibition rate is greater than 85%) | 5 (Level 5: the growth inhibition rate is greater than 85%) | 5 (Level 5: the growth inhibition rate is greater than 85%)
CC(Oc1nc(F)c(Cl)c(N)c1Cl)C(=O)OCc1ccco1 (centres unmarked) [Compound 212] | 5 (Level 5: the growth inhibition rate is greater than 85%) | 5 (Level 5: the growth inhibition rate is greater than 85%) | 5 (Level 5: the growth inhibition rate is greater than 85%) | 5 (Level 5: the growth inhibition rate is greater than 85%) | 5 (Level 5: the growth inhibition rate is greater than 85%)
Cc1ncc(COC(=O)C(C)Oc2nc(F)c(Cl)c(N)c2Cl)s1 (centres unmarked) [Compound 157] | 5 (Level 5: the growth inhibition rate is greater than 85%) | 5 (Level 5: the growth inhibition rate is greater than 85%) | 5 (Level 5: the growth inhibition rate is greater than 85%) | 5 (Level 5: the growth inhibition rate is greater than 85%) | 5 (Level 5: the growth inhibition rate is greater than 85%)
Cc1nc(OC(C)C(=O)OCc2ccccc2)c(Cl)c(N)c1Cl (centres unmarked) [Compound 5] | 5 (Level 5: the growth inhibition rate is greater than 85%) | 5 (Level 5: the growth inhibition rate is greater than 85%) | 5 (Level 5: the growth inhibition rate is greater than 85%) | 5 (Level 5: the growth inhibition rate is greater than 85%) | 5 (Level 5: the growth inhibition rate is greater than 85%)
Cc1c(OC(C)C(=O)OCc2ccccc2)ncc(Cl)c1N (centres unmarked) [Compound 21] | 5 (Level 5: the growth inhibition rate is greater than 85%) | 5 (Level 5: the growth inhibition rate is greater than 85%) | 5 (Level 5: the growth inhibition rate is greater than 85%) | 5 (Level 5: the growth inhibition rate is greater than 85%) | 5 (Level 5: the growth inhibition rate is greater than 85%)
CC(Oc1nc(F)c(Cl)c(N)c1Cl)C(=O)OCc1ccsc1 (centres unmarked) [Compound 215] | 5 (Level 5: the growth inhibition rate is greater than 85%) | 5 (Level 5: the growth inhibition rate is greater than 85%) | 5 (Level 5: the growth inhibition rate is greater than 85%) | 5 (Level 5: the growth inhibition rate is greater than 85%) | 5 (Level 5: the growth inhibition rate is greater than 85%)
Cc1ccccc1COC(=O)C(C)Oc1nc(F)c(Cl)c(N)c1Cl (centres unmarked) [Compound 69] | 5 (Level 5: the growth inhibition rate is greater than 85%) | 5 (Level 5: the growth inhibition rate is greater than 85%) | 5 (Level 5: the growth inhibition rate is greater than 85%) | 5 (Level 5: the growth inhibition rate is greater than 85%) | 5 (Level 5: the growth inhibition rate is greater than 85%)
